In US20220259193A1, “KCNT1 INHIBITORS AND METHODS OF USE” (Praxis Precision Medicines, Inc., priority 2019, published 2022):

Biological target: T1, KCNT1 (KNa1.1, Slack) (Homo sapiens, UniProt Q5JUK3)
T1 construct: expressed in transfected cells; host or cells: HEK-TREX (tetracycline-inducible HEK cell line)
T1 sequence (Q5JUK3 1-1230): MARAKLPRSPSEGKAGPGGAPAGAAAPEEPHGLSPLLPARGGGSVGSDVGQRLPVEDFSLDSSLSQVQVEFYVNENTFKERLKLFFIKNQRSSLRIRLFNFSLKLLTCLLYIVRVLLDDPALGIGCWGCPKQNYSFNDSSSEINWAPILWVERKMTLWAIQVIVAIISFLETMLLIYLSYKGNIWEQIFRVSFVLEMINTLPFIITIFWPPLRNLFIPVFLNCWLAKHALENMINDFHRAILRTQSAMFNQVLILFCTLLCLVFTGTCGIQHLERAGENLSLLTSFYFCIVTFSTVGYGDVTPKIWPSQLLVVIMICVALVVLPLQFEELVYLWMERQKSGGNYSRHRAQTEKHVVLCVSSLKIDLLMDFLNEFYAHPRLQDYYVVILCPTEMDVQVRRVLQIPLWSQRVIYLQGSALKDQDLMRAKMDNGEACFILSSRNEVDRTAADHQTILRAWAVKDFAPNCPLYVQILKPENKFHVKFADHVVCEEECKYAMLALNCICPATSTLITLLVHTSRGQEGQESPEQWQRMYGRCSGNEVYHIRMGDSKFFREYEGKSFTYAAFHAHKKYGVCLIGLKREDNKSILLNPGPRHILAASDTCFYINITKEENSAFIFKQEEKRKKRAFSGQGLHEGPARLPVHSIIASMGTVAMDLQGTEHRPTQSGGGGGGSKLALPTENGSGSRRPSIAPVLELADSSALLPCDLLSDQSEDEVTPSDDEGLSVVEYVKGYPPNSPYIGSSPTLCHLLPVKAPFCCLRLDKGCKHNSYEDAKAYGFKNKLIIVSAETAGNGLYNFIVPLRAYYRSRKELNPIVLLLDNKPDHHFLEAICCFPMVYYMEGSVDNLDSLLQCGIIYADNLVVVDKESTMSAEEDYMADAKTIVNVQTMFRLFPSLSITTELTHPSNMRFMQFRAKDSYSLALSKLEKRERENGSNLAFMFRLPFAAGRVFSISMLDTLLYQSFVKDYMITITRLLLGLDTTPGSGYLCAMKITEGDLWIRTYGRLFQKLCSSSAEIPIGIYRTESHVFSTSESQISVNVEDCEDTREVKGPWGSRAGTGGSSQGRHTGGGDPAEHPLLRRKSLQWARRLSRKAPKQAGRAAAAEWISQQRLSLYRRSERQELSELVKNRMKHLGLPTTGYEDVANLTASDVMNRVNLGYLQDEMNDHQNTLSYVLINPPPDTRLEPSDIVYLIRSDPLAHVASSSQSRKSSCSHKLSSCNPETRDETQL
Assay: KCNT1 patch clamp assay (SyncroPatch 384PE automated patch clamp)
Format: cell-based
Details: tetracycline inducible HEK-TREX cell line; perforated patch; step from −80 mV to 0 mV; room temperature; read-out: KCNT1-WT IC50
Experimental: KCNT1—Patch Clamp Assay Inhibition of KCNT1 (KNa1.1, Slack) was evaluated using a tetracycline inducible cell line (HEK-TREX). Currents were recorded using the SyncroPatch 384PE automated, patch clamp system. Pulse generation and data collection were performed with PatchController384 V1.3.0 and DataController384 V1.2.1 (Nanion Technologies). The access resistance and apparent membrane capacitance were estimated using built-in protocols. Current were recorded in perforated patch mode (10 μM escin) from a population of cells. […] The cells were allowed to recover in the cell hotel prior to experimentation. Currents were recorded at room temperature. […] The extracellular solution was used as the wash, reference and compound delivery solution. […] Escin is made at a 5 mM stock in water, aliquoted, and stored at −20° C. The compound plate was created at 2× concentrated in the extracellular solution. The compound was diluted to 1:2 when added to the recording well. The amount of DMSO in the extracellular solution was held constant at the level used for the highest tested concentration. A holding potential of −80 mV with a 100 ms step to 0 mV was used. […] The average mean current from 3 sweeps was calculated and the % inhibition of each compound was calculated. The % Inhibition as a function of the compound concentration was fit with a Hill equation to derive IC50, slope, min and max parameters.

| Compound | IC50 [nM] |
| --- | --- |
| Cc1nn(C(C)C)cc1C(=O)NC(C)c1nc(-c2ccc(C(F)(F)F)cc2)no1 (stereo not shown) [Compound 98] | 1000 to 20000 |
| C[C@@H](NC(=O)c1cc(C(F)(F)F)nn1C(F)F)c1nc(-c2cccc(Cl)c2)no1 (single isomer, unassigned) [Compound 82] | ≤ 1000 |
| Cc1cccc(-c2noc([C@@H](C)NC(=O)c3cn(C(C)C)nc3C)n2)c1 [Compound 232, 1-isopropyl-3-methyl-N-[(1R)-1-[3-(m-tolyl)-1,2,4-oxadiazol-5-yl]ethyl]pyrazole-4-carboxamide] | ≥ 20000 |
| CCOCc1cc(-c2noc([C@H](C)NC(=O)c3cc(C(F)(F)F)nn3C)n2)ccn1 [Compound 245, (S)—N-(1-(3-(2-(ethoxymethyl)pyridin-4-yl)-1,2,4-oxadiazol-5-yl)ethyl)-1-methyl-3-(trifluoromethyl)-1H-pyrazole-5-carboxamide] | 1000 to 20000 |
| Cn1nc(C(F)(F)F)cc1C(=O)N[C@H](CCS(C)(=O)=O)c1nc(-c2cccc(F)c2)no1 (single isomer, unassigned) [Compound 143] | ≥ 20000 |
| C[C@H](NC(=O)c1ccn(Cc2ccccc2)n1)c1nc(-c2ccnc(C3CC3)c2)no1 [Compound 306, 1-benzyl-N-[(1S)-1-[3-(2-cyclopropyl-4-pyridyl)-1,2,4-oxadiazol-5-yl]ethyl]pyrazole-3-carboxamide] | ≤ 1000 |
| Cn1nc(C(F)(F)F)cc1C(=O)N[C@H](CC(=O)NCCO)c1nc(-c2cccc(F)c2)no1 [Compound 122] | ≥ 20000 |
| CC(C)[C@H](NC(=O)c1cc(C2CC2)nn1C)c1nc(-c2cccc(F)c2)no1 [Compound 63] | ≤ 1000 |
| C[C@H](NC(=O)c1cc(C(F)(F)F)nn1C)c1nc(-c2ccnc(OC3CC3)c2)no1 [Compound 207, (S)—N-(1-(3-(2-cyclopropoxypyridin-4-yl)-1,2,4-oxadiazol-5-yl)ethyl)-1-methyl-3-(trifluoromethyl)-1H-pyrazole-5-carboxamide] | ≤ 1000 |
| CC(NC(=O)c1cc(C2CC2)nn1C)c1nc(-c2cccc(Cl)c2)no1 (stereo not shown) [Compound 6] | ≤ 1000 |
| Cc1cccc(-c2noc(C(C)NC(=O)c3cc(C)nn3C(C)(C)C)n2)c1 (stereo not shown) [Compound 11] | 1000 to 20000 |
| CC[C@H](NC(=O)OC(C)(C)C)c1nc(-c2ccnc(C)c2)no1 [Compound 284, tert-butyl (S)-(1-(3-(2-methylpyridin-4-yl)-1,2,4-oxadiazol-5-yl)propyl)carbamate] | 1000 to 20000 |
| CNC(=O)C[C@@H](NC(=O)c1cc(C(F)(F)F)nn1C)c1nc(-c2cccc(F)c2)no1 (single isomer, unassigned) [Compound 114] | ≥ 20000 |
| CNC(=O)C[C@H](NC(=O)c1cc(C(F)(F)F)nn1C)c1nc(-c2cccc(F)c2)no1 (single isomer, unassigned) [Compound 115] | ≥ 20000 |
| CC[C@H](NC(=O)c1cc(C(F)(F)F)nn1C1CC1)c1nc(-c2cccc(F)c2)no1 [Compound 113] | ≤ 1000 |
| Cn1nc(C(F)(F)F)cc1C(=O)NC(CC(N)=O)c1nc(-c2cccc(F)c2)no1 (single isomer, unassigned) [Compound 128, N-[3-amino-1-[3-(3-fluorophenyl)-1,2,4-oxadiazol-5-yl]-3-oxo-propyl]-2-methyl-5-(trifluoromethyl)pyrazole-3-carboxamide] | ≥ 20000 |
| COCCC(NC(=O)c1cc(C(F)(F)F)nn1C)c1nc(-c2cccc(F)c2)no1 (stereo not shown) [Compound 170] | ≤ 1000 |

| Compound | IC50 [nM] |
| --- | --- |
| Cn1nc(C(F)(F)F)cc1C(=O)NC(CC(=O)NCCO)c1nc(-c2cccc(F)c2)no1 (single isomer, unassigned) [Compound 121] | ≥ 20000 |
| Cn1nc(C(F)(F)F)cc1C(=O)NC(CNC(=O)OCc1ccccc1)c1nc(-c2cccc(F)c2)no1 (stereo not shown) [Compound 157, benzyl N-[2-[3-(3-fluorophenyl)-1,2,4-oxadiazol-5-yl]-2-[[2-methyl-5-(trifluoromethyl)pyrazole-3-carbonyl]amino]ethyl]carbamate] | 1000 to 20000 |
| Cn1nc(C(F)(F)F)cc1C(=O)NC(CC(=O)N1CC(O)C1)c1nc(-c2cccc(F)c2)no1 (stereo not shown) [Compound 124] | ≥ 20000 |
| COC(=O)CC(NC(=O)c1cc(C(F)(F)F)nn1C)c1nc(-c2cccc(F)c2)no1 (single isomer, unassigned) [Compound 126, methyl 3-[3-(3-fluorophenyl)-1,2,4-oxadiazol-5-yl]-3-[[2-methyl-5-(trifluoromethyl)pyrazole-3-carbonyl]amino]propanoate] | ≤ 1000 |
| C[C@H](NC(=O)c1cc(C(F)(F)F)nn1C)c1nc(-c2ccnc(N3CC(F)(F)C3)c2)no1 [Compound 222, (S)—N-(1-(3-(2-(3,3-difluoroazetidin-1-yl)pyridin-4-yl)-1,2,4-oxadiazol-5-yl)ethyl)-1-methyl-3-(trifluoromethyl)-1H-pyrazole-5-carboxamide] | ≤ 1000 |
| CC(NC(=O)c1cc(C(F)(F)F)nn1C)c1nc(-c2ccc(Cl)cc2Cl)no1 (stereo not shown) [Compound 75] | ≤ 1000 |
| Cc1nn(C(C)C)cc1C(=O)N[C@@H](C)c1nc(-c2cc(F)cc(Cl)c2)no1 [Compound 91] | ≤ 1000 |
| Cc1nn(C(C)C)cc1C(=O)N[C@@H](C)c1nc(-c2cccc(F)c2)no1 [Compound 153] | ≤ 1000 |
| CC(NC(=O)c1cc(C(F)(F)F)nn1C)c1nc(-c2ccnc(C3CCC3)c2)no1 (single isomer, unassigned) [Compound 279] | ≤ 1000 |
| C[C@H](NC(=O)c1cc(C(F)(F)F)nn1CCN1CCCC1)c1nc(-c2ccnc(C(F)(F)F)c2)no1 [Compound 257, (S)-1-(2-(pyrrolidin-1-yl)ethyl)-3-(trifluoromethyl)-N-(1-(3-(2-(trifluoromethyl)pyridin-4-yl)-1,2,4-oxadiazol-5-yl)ethyl)-1H-pyrazole-5-carboxamide] | ≤ 1000 |
| Cn1nc(C(F)(F)F)cc1C(=O)NC(CN)c1nc(-c2cccc(F)c2)no1 (stereo not shown) [Compound 167, N-[2-amino-1-[3-(3-fluorophenyl)-1,2,4-oxadiazol-5-yl]ethyl]-2-methyl-5-(trifluoromethyl)pyrazole-3-carboxamide] | 1000 to 20000 |
| CC[C@H](NC(=O)c1cc(C(F)(F)F)nn1C)c1nc(-c2cccc(F)c2)no1 [Compound 105] | ≤ 1000 |
| CC[C@@H](NC(=O)c1cc(C2CC2)nn1C)c1nc(-c2cccc(F)c2)no1 [Compound 61] | ≤ 1000 |
| Cc1cc(C(=O)N[C@@H](C)c2nc(-c3ccnc(C4CC4)c3)no2)n(C)n1 [Compound 227, (S)—N-(1-(3-(2-cyclopropylpyridin-4-yl)-1,2,4-oxadiazol-5-yl)ethyl)-1,3-dimethyl-1H-pyrazole-5-carboxamide] | ≤ 1000 |
| Cn1nc(C(F)(F)F)cc1C(=O)NCc1nc(-c2ccnc(C3CC3)c2)no1 [Compound 301, N-[[3-(2-cyclopropyl-4-pyridyl)-1,2,4-oxadiazol-5-yl]methyl]-2-methyl-5-(trifluoromethyl)pyrazole-3-carboxamide] | ≤ 1000 |
| C[C@H](NC(=O)c1cc(C(F)F)nn1C(F)F)c1nc(-c2cccc(F)c2)no1 [Compound 130] | ≤ 1000 |
| CC(NC(=O)c1cc(C2CC2)nn1C)c1nc(-c2ccc(F)cc2)no1 (stereo not shown) [Compound 8] | 1000 to 20000 |
